ChEMBL document CHEMBL4152353, “Synthesis of DNA interactive C3-trans-cinnamide linked β-carboline conjugates as potential cytotoxic and DNA topoisomerase I inhibitors” (Bioorg Med Chem, 2018)
Activity calls are given as the source filed them. No cut-off for these calls is given here.

Columns and labels:
HeLa = experiment: Cytotoxicity against human HeLa cells after 48 hrs by MTT assay; assay type: functional, cell-based
MCF7 [1] = experiment: Cytotoxicity against human MCF7 cells after 48 hrs by MTT assay; assay type: functional, cell-based; conditions: MCF7, 48 h
NIH3T3 [2] = experiment: Cytotoxicity against mouse NIH/3T3 cells after 48 hrs by MTT assay; assay type: cell-based; conditions: NIH3T3, 48 h
B16 = experiment: Cytotoxicity against mouse B16 cells after 48 hrs by MTT assay; assay type: functional, cell-based; conditions: B16, 48 h
A549 = experiment: Cytotoxicity against human A549 cells after 48 hrs by MTT assay; assay type: functional, cell-based; conditions: A549, 48 h
NIH3T3 [3] = experiment: Cytotoxicity against mouse NIH/3T3 cells assessed as cell death at 1 uM after 24 hrs by propidium iodide/Hoechst 33342 staining based fluorescence microscopic analysis; conditions: nih3t3, 24 h
Topoisomerase I = biological target: T1, Topoisomerase I (Bos taurus, UniProt Q2HPH0); experiment: Inhibition of calf thymus topoisomerase 1-mediated relaxation of supercoiled pBR322 DNA measured after 30 mins by agarose gel electrophoresis method
T1 sequence (Q2HPH0 whole entry): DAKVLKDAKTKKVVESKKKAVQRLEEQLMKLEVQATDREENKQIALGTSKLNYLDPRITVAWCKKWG

Calf thymus DNA [4] = experiment: Binding affinity to calf thymus DNA assessed as maximum absorption peak at 50 uM by UV-Vis absorption spectrophotometric method; assay type: nucleic-acid assay; conditions: Bos taurus
MCF7 [5] = experiment: Cell cycle arrest in human MCF7 cells assessed as accumulation at G1 phase at 1 uM after 48 hrs by propidium iodide staining based flow cytometry (reference value: 45.98%); assay type: functional
MCF7 [6] = experiment: Induction of apoptosis in human MCF7 cells assessed as DNA fragmentation at 1 uM after 48 hrs by Hoechst 33342 staining based confocal microscopic analysis; assay type: functional, cell-based
MCF7 [7] = experiment: Induction of apoptosis in human MCF7 cells assessed as viable cells at 1 uM after 48 hrs by Annexin-V-FITC/propidium iodide staining based flow cytometry (reference value: 96.18%); assay type: functional; conditions: MCF7, 48 h, read-out: Activity
MCF7 [8] = experiment: Induction of apoptosis in human MCF7 cells assessed as early apoptotic cells at 0.5 uM after 48 hrs by Annexin-V-FITC/propidium iodide staining based flow cytometry (reference value: 0.09%); assay type: functional
Calf thymus DNA [9] = experiment: Binding affinity to calf thymus DNA assessed as hypochromic shift at 50 uM by UV-Vis absorption spectrophotometric method; assay type: nucleic-acid assay; conditions: Bos taurus
MCF7 [10] = experiment: Cell cycle arrest in human MCF7 cells assessed as accumulation at G2/M-phase at 0.5 uM after 48 hrs by propidium iodide staining based flow cytometry (reference value: 33.65%); assay type: functional
MCF7 [11] = experiment: Induction of apoptosis in human MCF7 cells assessed as necrotic cells at 1 uM after 48 hrs by Annexin-V-FITC/propidium iodide staining based flow cytometry (reference value: 3.67%); assay type: functional
Calf thymus DNA [12] = experiment: Binding affinity to calf thymus DNA assessed as fluorescence quenching at 10 uM by spectrofluorimetric method; assay type: nucleic-acid assay; conditions: Bos taurus
MCF7 [13] = experiment: Induction of apoptosis in human MCF7 cells assessed as late apoptotic cells at 1 uM after 48 hrs by Annexin-V-FITC/propidium iodide staining based flow cytometry (reference value: 0.06%); assay type: functional
MCF7 [14] = experiment: Cell cycle arrest in human MCF7 cells assessed as accumulation at subG1 phase at 0.5 uM after 48 hrs by propidium iodide staining based flow cytometry (reference value: 3.04%); assay type: functional
Calf thymus DNA [15] = experiment: Binding affinity to calf thymus DNA at 50 uM by UV-Vis absorption spectrophotometric method; assay type: nucleic-acid assay; conditions: Bos taurus
Calf thymus DNA [16] = experiment: Binding affinity to calf thymus DNA assessed as DNA winding at 1:1 to 1:2 ratio of DNA to compound by circular dichroism analysis; assay type: nucleic-acid assay; conditions: Bos taurus
MCF7 [17] = experiment: Cell cycle arrest in human MCF7 cells assessed as accumulation at S-phase at 0.5 uM after 48 hrs by propidium iodide staining based flow cytometry (reference value: 15.64%); assay type: functional
MCF7 [18] = experiment: Induction of apoptosis in human MCF7 cells assessed as increase in number of wrinkled cells at 1 uM after 48 hrs by Hoechst 33342 staining based confocal microscopic analysis; assay type: functional, cell-based
MCF7 [19] = experiment: Cell cycle arrest in human MCF7 cells assessed as accumulation at S-phase at 1 uM after 48 hrs by propidium iodide staining based flow cytometry (reference value: 15.64%); assay type: functional
MCF7 [20] = experiment: Cell cycle arrest in human MCF7 cells assessed as accumulation at G1 phase at 0.5 uM after 48 hrs by propidium iodide staining based flow cytometry (reference value: 45.98%); assay type: functional
MCF7 [21] = experiment: Induction of apoptosis in human MCF7 cells assessed as early apoptotic cells at 1 uM after 48 hrs by Annexin-V-FITC/propidium iodide staining based flow cytometry (reference value: 0.09%); assay type: functional
MCF7 [22] = experiment: Cell cycle arrest in human MCF7 cells assessed as accumulation at G2/M-phase at 1 uM after 48 hrs by propidium iodide staining based flow cytometry (reference value: 33.65%); assay type: functional
MCF7 [23] = experiment: Induction of apoptosis in human MCF7 cells assessed as late apoptotic cells at 0.5 uM after 48 hrs by Annexin-V-FITC/propidium iodide staining based flow cytometry (reference value: 0.06%); assay type: functional
Calf thymus DNA [24] = experiment: Binding affinity to calf thymus DNA assessed as increase in viscosity at 15 uM by viscometric method; assay type: nucleic-acid assay; conditions: Bos taurus
MCF7 [25] = experiment: Induction of apoptosis in human MCF7 cells assessed as necrotic cells at 0.5 uM after 48 hrs by Annexin-V-FITC/propidium iodide staining based flow cytometry (reference value: 3.67%); assay type: functional
MCF7 [26] = experiment: Cytotoxicity against human MCF7 cells assessed as cell death at 1 uM after 24 hrs by propidium iodide/Hoechst 33342 staining based fluorescence microscopic analysis; assay type: functional
MCF7 [27] = experiment: Cell cycle arrest in human MCF7 cells assessed as accumulation at subG1 phase at 1 uM after 48 hrs by propidium iodide staining based flow cytometry (reference value: 3.04%); assay type: functional
MCF7 [28] = experiment: Induction of apoptosis in human MCF7 cells assessed as viable cells at 0.5 uM after 48 hrs by Annexin-V-FITC/propidium iodide staining based flow cytometry (reference value: 96.18%); assay type: functional; conditions: MCF7, 48 h, read-out: Activity

Work on `COc1ccc(-c2nc(CNC(=O)/C=C/c3cc(F)cc(F)c3)cc3c2[nH]c2ccccc23)cc1` yielded an IC50 (HeLa) of 24.6 nM, an IC50 (MCF7 [1]) of 17.2 nM and an IC50 (NIH3T3 [2]) of 37.5 nM. It also gave an IC50 (B16) of 23.9 nM and an IC50 (A549) of 20 nM.

With `C=CCNC(=O)/C=C/c1cccc(O)c1` the IC50 (HeLa) was greater than 50000 nM, the IC50 (MCF7 [1]) was greater than 50000 nM and the IC50 (NIH3T3 [2]) was greater than 50000 nM. For the same compound, the IC50 (A549) was greater than 50000 nM.

`COc1ccc(-c2nc(CNC(=O)/C=C/c3ccc(Cl)cc3)cc3c2[nH]c2ccccc23)cc1` was tested, and the IC50 (HeLa) was 21.6 nM, the Activity (NIH3T3 [3]) was “Non-Toxic” and the IC50 (Topoisomerase I) was 14 nM. For the same compound, the Activity (Calf thymus DNA [4]) was 287 to 369 nm, the Activity (MCF7 [5]) was 42.38% and the Activity (MCF7 [6]) was “Active”. For the same compound, the viability at 1 µM (MCF7 [7]) was 84.8%, the Activity (MCF7 [8]) was 6.65% and the IC50 (MCF7 [1]) was 14.1 nM. For the same compound, the Activity (Calf thymus DNA [9]) was 6 nm, the Activity (MCF7 [10]) was 33.1% and the Activity (MCF7 [11]) was 6.04%. The Activity (Calf thymus DNA [12]) was “Active”, the Activity (MCF7 [13]) was 2.43% and the Activity (MCF7 [14]) was 5.4%. For the same compound, the K (Calf thymus DNA [15]) was 3 ×10⁵ /M, the Activity (Calf thymus DNA [16]) was “Active” and the IC50 (NIH3T3 [2]) was 38.3 nM. The Activity (MCF7 [17]) was 17.6%, the IC50 (B16) was 16.6 nM and the Activity (MCF7 [18]) was “Active”. It also gave an Activity (MCF7 [19]) of 16.72%, an Activity (MCF7 [20]) of 42.32% and an Activity (MCF7 [21]) of 6.69%. The Activity (MCF7 [22]) was 37.42%, the Activity (MCF7 [23]) was 0.81% and the Activity (Calf thymus DNA [24]) was “Active”. For the same compound, the Activity (MCF7 [25]) was 1.29%, the IC50 (A549) was 18.9 nM and the Activity (MCF7 [26]) was “Active”. It also gave an Activity (MCF7 [27]) of 2.97% and a viability at 0.5 µM (MCF7 [28]) of 91.2%.

`C/C=C/C(=O)NCc1cc2c([nH]c3ccccc32)c(-c2ccc(OC)cc2)n1` gave an IC50 (HeLa) of 5410 nM, an IC50 (MCF7 [1]) of 10800 nM and an IC50 (NIH3T3 [2]) of 2670 nM. It also gave an IC50 (A549) of 3360 nM.

With `COc1cc(/C=C/C(=O)NCc2cc3c([nH]c4ccccc43)c(-c3cc(OC)c(OC)c(OC)c3)n2)cc(OC)c1OC` the IC50 (HeLa) was 23.5 nM, the IC50 (MCF7 [1]) was 16.5 nM and the IC50 (NIH3T3 [2]) was 38.9 nM. The IC50 (B16) was 17.2 nM and the IC50 (A549) was 21.3 nM.

`COc1ccc(OC)c(/C=C/C(=O)NCc2cc3c([nH]c4ccccc43)c(-c3cccc(F)c3)n2)c1` was tested, and the IC50 (HeLa) was 21.9 nM, the IC50 (MCF7 [1]) was 17.5 nM and the IC50 (NIH3T3 [2]) was 39.6 nM. For the same compound, the IC50 (B16) was 19.9 nM and the IC50 (A549) was 22.2 nM.

In the case of `COc1cc(-c2nc(CNC(=O)/C=C/c3ccc(Cl)c(Cl)c3)cc3c2[nH]c2ccccc23)cc(OC)c1OC`, the IC50 (HeLa) is reported as 25.9 nM, the IC50 (MCF7 [1]) is reported as 17.5 nM and the IC50 (NIH3T3 [2]) is reported as 39.2 nM. For the same compound, the IC50 (B16) was 16.9 nM and the IC50 (A549) was 20.4 nM.

`COc1ccc(-c2nc(CNC(=O)/C=C/c3ccc(Cl)c(Cl)c3)cc3c2[nH]c2ccccc23)cc1` was tested, and the IC50 (HeLa) was 21.6 nM, the IC50 (MCF7 [1]) was 16.4 nM and the IC50 (NIH3T3 [2]) was 37.5 nM. The IC50 (B16) was 23 nM and the IC50 (A549) was 18.4 nM.

With `COc1cc(/C=C/C(=O)NCc2cc3c([nH]c4ccccc43)c(-c3cccc(F)c3)n2)cc(OC)c1OC` the IC50 (HeLa) was 23 nM, the IC50 (MCF7 [1]) was 16.2 nM and the IC50 (NIH3T3 [2]) was 36 nM. The IC50 (B16) was 19.8 nM and the IC50 (A549) was 17.9 nM.

`O=C(/C=C/c1ccc(Cl)cc1)NCc1cc2c([nH]c3ccccc32)c(-c2cccc(F)c2)n1` gave an IC50 (HeLa) of 19.2 nM, an IC50 (MCF7 [1]) of 18.3 nM and an IC50 (NIH3T3 [2]) of 43.6 nM. It also gave an IC50 (B16) of 18.2 nM and an IC50 (A549) of 19.6 nM.

`CC[n+]1c(-c2ccccc2)c2cc(N)ccc2c2ccc(N)cc21` was tested, and the Activity (Calf thymus DNA [24]) was “Active”.

Work on `O=C(/C=C/c1ccc(Cl)c(Cl)c1)NCc1cc2c([nH]c3ccccc32)c(-c2cccc(F)c2)n1` yielded an IC50 (HeLa) of 24.9 nM, an IC50 (MCF7 [1]) of 17 nM and an IC50 (NIH3T3 [2]) of 39 nM. The IC50 (B16) was 18.9 nM and the IC50 (A549) was 18 nM.

For `COc1cc(-c2nc(CNC(=O)/C=C/c3cccc(O)c3)cc3c2[nH]c2ccccc23)cc(OC)c1OC`, the IC50 (HeLa) was 23.6 nM, the IC50 (MCF7 [1]) was 16.8 nM and the IC50 (NIH3T3 [2]) was 38.2 nM. It also gave an IC50 (B16) of 21.8 nM and an IC50 (A549) of 19.5 nM.

Compound `COc1ccc(-c2nc(CNC(=O)CCCl)cc3c2[nH]c2ccccc23)cc1` has an IC50 (HeLa) greater than 50000 nM, an IC50 (MCF7 [1]) greater than 50000 nM and an IC50 (NIH3T3 [2]) greater than 50000 nM. The IC50 (A549) was greater than 50000 nM.
